Test results reported in PubChem BioAssay (NCI).
Values joined by “and” are separate entries in the source; they are usually repeats but may differ in a detail not shown here. Equal values may be shown once.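 Tested at 5 concentrations; 48 h exposure; 96-well plates; endpoints linearly interpolated, else capped at highest concentration. GI50: concentration for 50% inhibition of growth. TGI is the concentration that stops growth completely.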

Columns and labels:
Assay in all cases: DTP human tumour cell line panel, 48 h
CCRF-CEM leukemia = system: CCRF-CEM leukemia
COLO 205 colon = system: COLO 205 colon
HT29 colon = system: HT29 colon
MALME-3M melanoma = system: MALME-3M melanoma
NCI/ADR-RES ovarian = system: NCI/ADR-RES ovarian
RXF 393 renal = system: RXF 393 renal
SF-539 CNS = system: SF-539 CNS
SK-MEL-5 melanoma = system: SK-MEL-5 melanoma
SN12C renal = system: SN12C renal
UACC-257 melanoma = system: UACC-257 melanoma

Structure (SMILES)	GI50 (CCRF-CEM leukemia)	GI50 (COLO 205 colon)	TGI (COLO 205 colon)	GI50 (HT29 colon)	TGI (HT29 colon)	GI50 (MALME-3M melanoma)	GI50 (NCI/ADR-RES ovarian)	TGI (NCI/ADR-RES ovarian)	GI50 (RXF 393 renal)	GI50 (SF-539 CNS)	GI50 (SK-MEL-5 melanoma)	GI50 (SN12C renal)	GI50 (UACC-257 melanoma)	TGI (CCRF-CEM leukemia) [µM]	TGI (MALME-3M melanoma) [µM]	TGI (SF-539 CNS) [µM]	TGI (SK-MEL-5 melanoma) [µM]	TGI (SN12C renal) [µM]	TGI (UACC-257 melanoma) [µM]	TGI (RXF 393 renal) [µM]
CC[C@@]1(O)C(=O)OCc2c1cc1n(c2=O)Cc2cc3c(CN(C)C)c(O)ccc3nc2-1	< 0.01 µM and 0.0032 µM	0.384 µM and 0.089 µM and 0.855 µM	4.85 µM [middle of 4 runs]	0.0669 µM and 0.0589 µM and 0.24 µM	8.1 µM and 20.2 µM and 6.7 µM	0.0881 µM and 0.157 µM and 0.39 µM	0.0737 µM and 0.355 µM and 0.105 µM	3.22 µM and 19.7 µM and 4.78 µM	0.0188 µM and 0.0182 µM and 0.0775 µM	< 0.01 µM and 0.00383 µM and 0.0215 µM	0.0197 µM and 0.0191 µM and 0.0448 µM	< 0.01 µM and 0.00456 µM and 0.0248 µM	0.106 µM and 0.0677 µM and 0.297 µM							
Clc1ccc(OCc2nnc3sc(SSc4nn5c(COc6ccc(Cl)cc6)nnc5s4)nn23)cc1	76.7 µM		> 100 µM		> 100 µM			> 100 µM						> 100	> 100	> 100	> 100	> 100	> 100	
Fc1cc(C2=Nn3c(CNc4ccc(Cl)cc4)nnc3S/C2=C\c2ccc(-c3ccc(Cl)cc3)o2)c(Cl)cc1Cl			88.6 µM		> 100 µM			27.5 µM						> 100	60.7		> 100	> 100	> 100	61.4
CC1(CO)C(O)CCC2(C)C1C(O)CC1CC3CC12CCC3(O)CO (stereo not given)			> 225 µM		> 225 µM			> 225 µM						> 225	> 225	> 225	> 225	> 225	> 225	> 225
OC(c1ccccc1)C1CC2C=CC1C2 (stereo not given)			> 100 µM		> 100 µM									> 100	> 100	> 100	> 100	> 100	> 100	> 100
CNCCCn1c2c(c3ccc(Cl)cc3c1=O)C(=O)c1cc(OC)cnc1-2				1.08 µM	2.45 µM		0.536 µM	2.91 µM	1.3 µM		1.12 µM	1.18 µM	2.24 µM				2.49	3.04	11.1	2.84
Fc1ccc(Nc2ncc(-c3cc(F)c(Cl)cc3Cl)s2)cc1Cl		28.5 µM	> 100 µM	24.3 µM	> 100 µM	14 µM	17.7 µM	32.5 µM	6.67 µM	10.5 µM	12.3 µM	3.91 µM	14.3 µM		31.2	32.5	25.9	> 100	29.2	24.3
COc1ccc(/C=C2\C[C@H]3[C@@H]4CC=C5C[C@@H](OC(C)=O)CC[C@]5(C)[C@H]4CC[C@]3(C)C2=O)cc1OC			> 100 µM		> 100 µM			> 100 µM						> 100	> 100	> 100	26.4	> 100	> 100	> 100
Clc1ccc(C2CC(c3cccc(Nc4ccncc4)c3)=NN2c2ccccc2)cc1 (stereo not given)	1.94 µM	1.96 µM	4.5 µM	1.69 µM	3.62 µM	1.58 µM			1.67 µM	1.7 µM	1.82 µM	1.78 µM	1.8 µM	5.41	3.14	3.09	3.26	3.31	3.83	3.08
CC(C)C(=O)Nc1ccc(-c2nc(-c3cccc(OCCN4CCOCC4)c3)c(-c3ccnc(Br)c3)[nH]2)cc1	3.27 µM	2.42 µM	6.59 µM			1.58 µM	6.23 µM	> 100 µM	1.24 µM	2.3 µM	1.79 µM	4.46 µM	2.37 µM	> 100	3.3	8.65	3.25	> 100	5.68	2.91
CC(C)(C)CNCCCNc1ccc(Cl)cc1			45.3 µM		56.5 µM			> 100 µM						> 100	53.9	> 100		> 100	58.1	74.3
COc1ccc(C2CC(c3ccc(NS(=O)(=O)c4cc([N+](=O)[O-])ccc4C)cc3)=NN2S(=O)(=O)c2cc([N+](=O)[O-])ccc2C)cc1 (stereo not given)			> 100 µM		> 100 µM			> 100 µM						> 100	> 100		> 100	> 100	> 100	> 100
